Data on one substance can be found in PMC5854708, “Grass Carp Prolactin Gene: Structural Characterization and Signal Transduction for PACAP-induced Prolactin Promoter Activity” (Scientific Reports, 2018).

In assay [1] the test system is grass carp PRL promoter deletion/mutation/truncation constructs in αT3-1 cells. As to the kind of experiment: Deletion, mutagenesis and truncation analysis of PRL promoter activity, dual-luciferase, αT3-1 cells. Particulars: PACAP 10 nM, 24 hrs, n = 4. In kind it is cell-based, grass carp (promoter); rat (αT3-1 cells, as printed). Here is the method:
To test the functionality of the grass carp PRL promoter, a series of deletion constructs were prepared by subcloning decreasing lengths of 5′ promoter sequence of PRL gene into the luciferase-expressing reporter pGL3.Basic. […] In this study, the upstream promoter of the carp PRL gene, including pPRL(−1156), pPRL(−914), pPRL(−670), pPRL(−448) and pPRL(−306), acted as strong promoters in αT3-1 cells. […] Subsequently, mutagenesis and truncation analysis were performed to investigate the role of transcription sites in PRL promoter activity.
Figure 3 Deletion, mutagenesis and truncation analysis of PRL promoter activity in αT3-1 cells. (A) Deletion analysis of the oPACAP38-induced PRL promoter activity. […] TEXT PRINTED IN THE PICTURE: (A) oPACAP38: pPRL(-1156).LUC: X 4.80 ± 0.15 *; pPRL(-914).LUC: X 4.51 ± 0.26 *; pPRL(-670).LUC: X 3.85 ± 0.17 *; pPRL(-448).LUC: X 3.79 ± 22 *; pPRL(-306).LUC: X 3.83 ± 0.12 *; pPRL(-166).LUC: X 3.26 ± 0.20 *; pPRL(-124).LUC: X 3.57 ± 0.19 *; pPRL(-57).LUC: X 2.09 ± 0.12 * DOUBTS OF THE COPYIST ABOUT THIS PICTURE: oPACAP38, pPRL(-448).LUC: the error reads '± 22' with no decimal point visible; '0.' may be missing or hidden / oPACAP38, pPRL(-306).LUC: 3.83 or 3.63 (small rotated print crossed by the dotted frame line) / The fold values (X ...) are printed over the oPACAP38 bars, one per promoter construct. […]

Another assay deals with αT3-1 cells, total IP. As to the kind of experiment: Total inositol phosphate measurement in αT3-1 cells. In kind it is cell-based, rat (αT3-1 cells, as printed). The following applies: myo-[3H] inositol labelled αT3-1 cells, 10 mM LiCl; treatment 45 min; GnRH 1 μM. Here is the method: Figure 7 Functional role of the PLC/IP3/PKC and CaM/CaMK-II cascades in PACAP- and Forskolin-induced PRL promoter activity. αT3-1 cells were transiently transfected with pPRL(−1156).LUC for 6 h by using lipofectamine. After 18 h recovery, the cells were incubated with respective drugs. […] (B) Transfected αT3-1 cells were labeled with 2 μCi/well of myo-[3 H] inositol (DuPont/NEN) in myo-inositol free DMEM medium containing 10% fetal bovine serum and then treated with oPACAP38, VIP, and GnRH for 45 mins. The total IP production were analyzed by detecting the radio-labelled inositol incorporation.
Transfected αT3-1 cells were labeled with 2 μCi/well of myo-[^3H] inositol (DuPont/NEN) in myo-inositol free DMEM medium containing 10% fetal bovine serum. After incubation for 12 hr at 37 °C, myo-[^3H] inositol labeling medium was removed, and αT3-1 cells were washed two times with prewarmed phosphate buffered saline (PBS; pH 7.4) to remove trace of the excessive myo-[^3H] inositol. The transfected cells were then incubated in DMEM containing 0.1% BSA and 10 mM LiCl (to inhibit inositol phosphate degradation) for 20 min at 37 °C before drug treatment. After that, the transfected cells were treated with ovine PACAP38, VIP, and GnRH for 45 min. […] Levels of radioactivity in these samples were measured using a liquid scintillation counter (Beckman).

For the substance “pituitary adenylate cyclase-activating peptide [PACAP]”, in assay [1] (AP-1 site −136 to −130, pPRL(−166).Luc), the “PACAP-stimulated promoter activity upon mutagenesis and truncation of AP-1 site” value was “significantly suppressed”. Moreover, the “PACAP-stimulated promoter activity upon mutagenesis and truncation of C/EBPalpha site” value in assay [1] (C/EBPalpha site −226 to −217, pPRL(−306).Luc) is recorded as “significantly suppressed”. Also, the “total IP level” value in the assay with αT3-1 cells, total IP was “enhance total IP level”.
